The source of these data is patent publication US20200031848A1, “AR-V7 INHIBITORS” (Hoffmann-La Roche Inc., priority 2016, published 2020).

The target of data set [1] is T1, AR transcriptional activity (Homo sapiens, UniProt P10275, T878A).
T1 construct: The LNCaP eGFP cell line was stably transfected with an androgen-responsive probasin-derived promoter fused to an eGFP reporter; endogenous in cells; host or cells: LNCaP eGFP (LN-ARR2PB-eGFP) human prostate cancer cells
T1 sequence (P10275 1-920 T878A): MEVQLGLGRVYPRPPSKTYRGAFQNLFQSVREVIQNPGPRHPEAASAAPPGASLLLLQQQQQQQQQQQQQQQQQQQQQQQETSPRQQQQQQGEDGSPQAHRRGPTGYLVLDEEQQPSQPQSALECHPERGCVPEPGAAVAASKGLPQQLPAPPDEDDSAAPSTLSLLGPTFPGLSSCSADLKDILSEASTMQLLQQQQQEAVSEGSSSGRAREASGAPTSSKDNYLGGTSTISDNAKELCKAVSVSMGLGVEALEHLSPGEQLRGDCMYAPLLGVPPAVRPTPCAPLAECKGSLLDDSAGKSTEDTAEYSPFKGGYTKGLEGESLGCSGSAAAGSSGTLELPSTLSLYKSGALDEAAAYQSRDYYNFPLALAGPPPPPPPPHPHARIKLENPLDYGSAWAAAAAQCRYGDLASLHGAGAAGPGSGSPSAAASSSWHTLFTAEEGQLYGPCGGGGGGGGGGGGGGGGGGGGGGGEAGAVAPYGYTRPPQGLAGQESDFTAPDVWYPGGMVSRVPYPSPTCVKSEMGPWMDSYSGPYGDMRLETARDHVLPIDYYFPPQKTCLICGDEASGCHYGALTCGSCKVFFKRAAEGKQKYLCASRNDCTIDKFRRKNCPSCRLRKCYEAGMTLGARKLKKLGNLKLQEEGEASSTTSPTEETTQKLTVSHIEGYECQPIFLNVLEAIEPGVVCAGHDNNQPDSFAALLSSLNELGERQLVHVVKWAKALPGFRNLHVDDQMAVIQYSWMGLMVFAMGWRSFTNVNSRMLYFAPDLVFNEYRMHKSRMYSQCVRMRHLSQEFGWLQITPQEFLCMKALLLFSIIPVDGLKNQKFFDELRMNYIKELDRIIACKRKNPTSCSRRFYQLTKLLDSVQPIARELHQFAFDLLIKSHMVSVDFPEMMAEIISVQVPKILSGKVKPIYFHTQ
Description: eGFP cellular AR transcription assay. The data set is classed as cell-based. Particulars: LNCaP eGFP cell line. From the text: The DNA-binding domain is an attractive target for inhibition of AR dimerization and/or DNA binding. In silico computational drug discovery methods were used to conduct a virtual screen of >3 million purchasable lead-like compounds from the ZINC database (Irwin, J. et al.^11) to identify potential DBD binders. The in silico methods included large-scale docking, in-site rescoring and consensus voting procedures. It will be understood by a person of skill that COOH and NR2 may include the corresponding ions, for example carboxylate ions and ammonium ions, respectively. Alternatively, where the ions are shown, a person of skill in the art will appreciate that the counter ion may also be present. Furthermore, it will be appreciated by a person of skill that other moieties may include the corresponding ions, and where the ions are shown, a person of skill in the art will appreciate that the counter ion may also be present. […] Where the % inhibition, eGFP IC50 or the PSA IC50 has no value given, this may be because no measurement was taken or the value was not calculated, in the case of the % inhibition. In vitro identification of AR inhibitors targeting AR DBD The selected compounds were assessed with a non-destructive eGFP assay that quantifies levels of AR transcriptional activity, were identified (table below).
1. Cell Culture: LNCaP and PC3 human prostate cancer cells were obtained from American Type Culture Collection (ATCC, Manassas, Va.) and grown in RPMI 1640 medium supplemented with 5% fetal bovine serum (FBS) (Invitrogen). The LNCaP eGFP cell line was stably transfected with an androgen-responsive probasin-derived promoter fused to an eGFP reporter (LN-ARR2PB-eGFP) using a lentiviral approach, and were grown in phenol-red-free RPMI 1640 supplemented with 5% CSS. In-house developed MDV3100-resistant LNCaP cells were cultured in RPMI 1640 supplemented with 5% FBS and 10 μM MDV3100. All cells were maintained at 37° C. in 5% CO2.
2. eGFP cellular AR transcription assay: The AR transcriptional activity was assayed as previously described (Tavassoli, P., et al.^12).

A short description of the next data set: in vitro. Particulars: for microsomal CLint at 2 μM: human, microsomes, pH 7.4. On the procedure:
Microsomal incubations were carried out in 96-well plates in 5 aliquots of 40 μL each (one for each time point). […] Control incubations were performed replacing the NADPH-cofactor system with PBS. […] Incubations were performed in duplicates. Five time points over 40 minutes had been analyzed. The reactions were stopped by adding 12 volumes of 90% acetonitrile-water to incubation aliquots, followed by protein sedimentation by centrifuging at 5500 rpm for 5 minutes. Supernatants were analyzed using the HPLC system coupled with tandem mass spectrometer. The elimination constant (kel), half-life (t1/2) and intrinsic clearance (Clint) were determined in plot of […] versus time, using linear regression analysis: […]

What is called IC50 is the concentration that inhibits the measured activity by half. A lower IC50 goes with higher potency. Take `Brc1cn(-c2csc(N3C[C@@H]4C[C@H]3CO4)n2)c(Br)n1` [Example 11, (1S,4S)-5-[4-(2,4-dibromoimidazol-1-yl)thiazol-2-yl]-2-oxa-5-azabicyclo[2.2.1]heptane]: half-maximal inhibition in data set [1] (IC50) was put at 1180 nM.

In turn, `Brc1ncn(-c2csc(N3C[C@@H]4C[C@H]3CO4)n2)c1Br` [Example 12, (1S,4S)-5-[4-(4,5-dibromoimidazol-1-yl)thiazol-2-yl]-2-oxa-5-azabicyclo[2.2.1]heptane] yielded an IC50 in data set [1] of 1320 nM.

Regarding `Brc1cn(-c2csc(N3C[C@H]4CC[C@@H](C3)O4)n2)c(Br)n1` [Example 13, (1S,5R)-3-[4-(2,4-dibromoimidazol-1-yl)thiazol-2-yl]-8-oxa-3-azabicyclo[3.2.1]octane], in data set [1], the midpoint of inhibition, the IC50, lay at 110 nM.

As for `Brc1cn(-c2csc(N3CCOCC3C3CC3)n2)c(Br)n1` (stereo not shown) [Example 14, 3-cyclopropyl-4-[4-(2,4-dibromoimidazol-1-yl)thiazol-2-yl]morpholine], 120 nM corresponded to half-maximal inhibition in data set [1] (IC50).

The term microsomal CLint denotes a measure of how fast metabolising enzymes remove a compound, apart from limits set by blood flow. `CCC1COCCN1c1nc(-n2cc(Br)nc2Br)cs1` (stereo not shown) [Example 15, 4-[4-(2,4-dibromoimidazol-1-yl)thiazol-2-yl]-3-ethyl-morpholine] had a 50% inhibitory concentration (IC50) in data set [1] of 130 nM. Besides, the microsomal CLint at 2 μM in the data set “in vitro” was found to be 51 µL/min/mg.

Take `CSc1nc(Br)cn1-c1csc(N2[C@@H]3CC[C@H]2COC3)n1` [Example 16, (1R,5S)-8-[4-(4-bromo-2-methylsulfanyl-imidazol-1-yl)thiazol-2-yl]-3-oxa-8-azabicyclo[3.2.1]octane]: in data set [1], half-maximal inhibition (IC50) required 140 nM. That is a sub-micromolar value.

In turn, `CC1CN(c2nc(-n3cc(Br)nc3Br)cs2)C(C)CO1` (stereo not shown) [Example 17, 4-[4-(2,4-dibromoimidazol-1-yl)thiazol-2-yl]-2,5-dimethyl-morpholine] returned a concentration for half-maximal inhibition (IC50) in data set [1] of 190 nM. This compound also displayed a microsomal CLint at 2 μM in “in vitro” of 41 µL/min/mg.

In data set [1], `Brc1cn(-c2csc(N3CCOC4(CCCC4)C3)n2)c(Br)n1` [Example 18, 9-[4-(2,4-dibromoimidazol-1-yl)thiazol-2-yl]-6-oxa-9-azaspiro[4.5]decane] yielded an IC50 of 200 nM. The “"No cofactor" control: role of CYP450 in metabolism” value in the data set “in vitro” (NADPH-cofactor system replaced with PBS) is listed as “not determined just by CYP450 activity”. Besides, the “metabolic stability in human hepatic microsomal test system (in words)” value in the data set “in vitro” (human hepatic microsomes) is “low stability”. The same compound yielded a microsomal CLint at 2 μM in the data set “in vitro” of 100 µL/min/mg.

`Clc1ncn(-c2csc(N3[C@@H]4CC[C@H]3COC4)n2)c1Cl` [Example 19, (1R,5S)-8-[4-(4,5-dichloroimidazol-1-yl)thiazol-2-yl]-3-oxa-8-azabicyclo[3.2.1]octane]: the IC50 in data set [1] was 320 nM. For the same compound, in the data set “in vitro”, the microsomal CLint at 2 μM worked out at 42 µL/min/mg.

Compound `Clc1ncn(-c2csc(N3C[C@H]4CC[C@@H](C3)O4)n2)c1Cl` [Example 20, (1S,5R)-3-[4-(4,5-dichloroimidazol-1-yl)thiazol-2-yl]-8-oxa-3-azabicyclo[3.2.1]octane] gave a half-maximal inhibitory concentration (IC50) in data set [1] of 250 nM. This compound came in with a microsomal CLint at 2 μM in the data set “in vitro” of 40 µL/min/mg.

In data set [1], `FC(F)(F)C1CN(c2nc(-n3cc(Br)nc3Br)cs2)CCO1` (stereo not shown) [Example 25, 4-[4-(2,4-dibromoimidazol-1-yl)thiazol-2-yl]-2-(trifluoromethyl)morpholine] came in with an IC50 of 1700 nM.

As to `Brc1cn(-c2csc(N3CCOC4CCCC43)n2)c(Br)n1` (stereo not shown) [Example 26, 4-[4-(2,4-dibromoimidazol-1-yl)thiazol-2-yl]-3,4a,5,6,7,7a-hexahydro-2H-cyclopenta[b][1,4]oxazine], inhibition in data set [1] was half-maximal at 1530 nM (IC50).

For the compound `Brc1cn(-c2csc(N3CC4CC3CO4)n2)c(Br)n1` (stereo not shown) [Example 27, 5-[4-(2,4-dibromoimidazol-1-yl)thiazol-2-yl]-2-oxa-5-azabicyclo[2.2.1]heptane], inhibition in data set [1] was half-maximal at 1610 nM (IC50). The IC50 values of the last two compounds are within 1.5-fold of each other.

`Brc1cn(-c2csc(N3CCOC4(CCOCC4)C3)n2)c(Br)n1` [Example 28, 4-[4-(2,4-dibromoimidazol-1-yl)thiazol-2-yl]-1,9-dioxa-4-azaspiro[5.5]undecane] came in with a half-maximal inhibitory concentration (IC50) in data set [1] of 3120 nM.

The compound `Brc1cn(-c2csc(N3CCOC4CCCCC43)n2)c(Br)n1` (stereo not shown) [Example 29, 4-[4-(2,4-dibromoimidazol-1-yl)thiazol-2-yl]-2,3,4a,5,6,7,8,8a-octahydrobenzo[b][1,4]oxazine] gave an IC50 in data set [1] of 3150 nM.

`CC(C)C1CN(c2nc(-n3cc(Br)nc3Br)cs2)CCO1` (stereo not shown) [Example 30, 4-[4-(2,4-dibromoimidazol-1-yl)thiazol-2-yl]-2-isopropyl-morpholine] returned an IC50 in data set [1] of 6650 nM.

`Brc1cn(-c2csc(N3CCOC(c4ccccc4)C3)n2)c(Br)n1` (stereo not shown) [Example 31, 4-[4-(2,4-dibromoimidazol-1-yl)thiazol-2-yl]-2-phenyl-morpholine]: in data set [1], the half-maximal inhibitory concentration (IC50) was 8150 nM. This IC50 and that of the compound before are within 1.5-fold of each other.

Compound `Brc1cn(-c2csc(N3CCOC(Cc4ccccc4)C3)n2)c(Br)n1` (stereo not shown) [Example 32, 2-benzyl-4-[4-(2,4-dibromoimidazol-1-yl)thiazol-2-yl]morpholine] returned a concentration for half-maximal inhibition (IC50) in data set [1] of 27400 nM.

In the case of `Brc1cn(-c2csc(N3CCOC(c4cccs4)C3)n2)c(Br)n1` (stereo not shown) [Example 33, 4-[4-(2,4-dibromoimidazol-1-yl)thiazol-2-yl]-2-(2-thienyl)morpholine], 170 nM corresponded to half-maximal inhibition in data set [1] (IC50).

Consider `CC(C)(C)C1CN(c2nc(-n3cc(Br)nc3Br)cs2)CC(C(C)(C)C)O1` (stereo not shown) [Example 34, 2,6-ditert-butyl-4-[4-(2,4-dibromoimidazol-1-yl)thiazol-2-yl]morpholine], for which, in data set [1], the “eGFP IC50” value is listed as “inact”.

`Clc1ncn(-c2csc(N3CCOCC3)n2)c1Br` [Example 44, 4-[4-(5-bromo-4-chloro-imidazol-1-yl)thiazol-2-yl]morpholine]: in “in vitro”, the microsomal CLint at 2 μM worked out at 196 µL/min/mg.

Compound `Clc1c(Br)ncn1-c1csc(N2CCOCC2)n1` [Example 45, 4-[4-(4-bromo-5-chloro-imidazol-1-yl)thiazol-2-yl]morpholine] registered a microsomal CLint at 2 μM in the data set “in vitro” of 185 µL/min/mg.

In data set [1], `Clc1cn(-c2csc(N3CCOCC3)n2)cn1` [Example 47, 4-[4-(4-chloroimidazol-1-yl)thiazol-2-yl]morpholine] came in with a half-inhibitory concentration (IC50) of 970 nM.

As for `Brc1cn(-c2csc(N3CCOCC3)n2)cn1` [Example 48, 4-[4-(4-bromoimidazol-1-yl)thiazol-2-yl]morpholine], in “in vitro”, the microsomal CLint at 2 μM turned out to be 81 µL/min/mg.

In turn, `N#Cc1nc(Br)cn1-c1csc(N2CCOCC2)n1` [Example 51, 4-bromo-1-(2-morpholinothiazol-4-yl)imidazole-2-carbonitrile] had a concentration for half-maximal inhibition (IC50) in data set [1] of 1600 nM.

`Cc1ncn(-c2csc(N3CCOCC3)n2)c1C` [Example 52, 4-[4-(4,5-dimethylimidazol-1-yl)thiazol-2-yl]morpholine] returned a 50% inhibitory concentration (IC50) in data set [1] of 3650 nM.

The compound `Brc1ncn(-c2csc(N3CCOC4(COC4)C3)n2)c1Br` [Example 65, 8-(4-(4,5-dibromo-1H-imidazol-1-yl)thiazol-2-yl)-2,5-dioxa-8-azaspiro[3.5]nonane] displayed an IC50 in data set [1] of 4470 nM. The IC50 values of the last two compounds are within 1.5-fold of each other.
